For one series, the target named is T1, recombinant human HDAC6 (Homo sapiens, UniProt Q9UBN7).
T1 sequence (Q9UBN7 1-1215): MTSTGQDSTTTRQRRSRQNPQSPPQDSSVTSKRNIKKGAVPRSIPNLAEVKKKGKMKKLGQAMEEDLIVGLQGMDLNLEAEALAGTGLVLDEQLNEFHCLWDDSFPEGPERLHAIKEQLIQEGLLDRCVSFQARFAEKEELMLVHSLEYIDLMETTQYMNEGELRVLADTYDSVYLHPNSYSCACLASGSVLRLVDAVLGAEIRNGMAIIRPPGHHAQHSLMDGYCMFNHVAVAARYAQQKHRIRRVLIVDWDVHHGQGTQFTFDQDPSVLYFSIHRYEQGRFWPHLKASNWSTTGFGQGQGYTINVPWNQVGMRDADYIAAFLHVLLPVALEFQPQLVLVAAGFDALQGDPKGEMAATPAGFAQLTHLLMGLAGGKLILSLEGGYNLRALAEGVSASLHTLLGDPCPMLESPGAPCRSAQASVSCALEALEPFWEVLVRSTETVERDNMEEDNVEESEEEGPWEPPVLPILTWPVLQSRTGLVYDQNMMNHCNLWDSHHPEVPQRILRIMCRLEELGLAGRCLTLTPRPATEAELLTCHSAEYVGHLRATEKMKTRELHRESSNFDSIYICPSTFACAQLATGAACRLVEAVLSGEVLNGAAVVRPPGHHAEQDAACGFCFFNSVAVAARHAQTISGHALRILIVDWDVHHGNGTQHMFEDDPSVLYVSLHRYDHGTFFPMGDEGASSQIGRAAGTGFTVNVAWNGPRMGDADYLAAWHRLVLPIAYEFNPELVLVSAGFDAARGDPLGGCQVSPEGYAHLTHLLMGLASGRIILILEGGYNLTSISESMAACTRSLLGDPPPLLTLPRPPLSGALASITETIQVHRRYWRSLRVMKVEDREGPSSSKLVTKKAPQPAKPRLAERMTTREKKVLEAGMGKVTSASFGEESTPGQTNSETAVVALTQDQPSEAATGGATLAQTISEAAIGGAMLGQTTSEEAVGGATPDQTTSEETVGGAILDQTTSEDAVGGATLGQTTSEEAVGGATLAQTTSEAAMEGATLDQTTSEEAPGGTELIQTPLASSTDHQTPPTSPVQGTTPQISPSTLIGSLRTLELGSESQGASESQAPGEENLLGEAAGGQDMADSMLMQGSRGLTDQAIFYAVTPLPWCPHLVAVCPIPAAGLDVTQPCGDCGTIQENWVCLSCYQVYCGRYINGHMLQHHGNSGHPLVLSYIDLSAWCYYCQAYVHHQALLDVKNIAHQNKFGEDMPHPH
The series can be described thus: Enzymatic screening on recombinant human HDAC6. It counts as biochemical. As to conditions: read-out: HDAC6 IC50. The essentials: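 Recombinant human HDAC isoforms were incubated with compound at 30 °C for isoform-specific times. Fluor de Lys, Fluor de Lys-Green or trifluoroacetyl-lysine substrate in Tris-HCl pH 8 buffer with NaCl, Tween-20 and glycerol was then added, followed by reaction at 30 °C.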

A further series has as its target T2, recombinant human HDAC3 (Homo sapiens, UniProt O15379).
T2 construct: purchased BPS 50003
The series can be described thus: Enzymatic screening on recombinant human HDAC3. It is filed as biochemical. As to conditions: Table 3. As for the experimental part: Enzymatic activity on recombinant human HDAC6 and HDAC3 was evaluated (Table 2) for each synthesized compound.
(§1) After a period of incubation at 30° C. (incubation times vary for different isoforms and are shown in table 1) 25 μL of solution containing the substrate were added. As substrate, FLUOR DE LYS® deacetylase substrate (Enzo Life Sciences, cat #BML-K1104, FdL), FLUOR DE LYS®-Green substrate (Enzo Life Sciences, cat #BML-K1572 FdL_G) and trifluoroacetyl-L-lysine (Tfal)-2× concentrated solution in 25 mM Tris-HCl, pH 8, 130 mM NaCl 0.05% Tween-20 10% glycerol) were used. Following a reaction period at 30° C.

Another series has as its target T3, HDAC1 (Homo sapiens, UniProt Q13547).
T3 construct: purchased BPS 50051
The series can be described thus: Enzymatic test HDAC1. As to conditions: Table 3. It is filed as biochemical.

The next series has as its target T4, HDAC8 (Homo sapiens, UniProt Q9BY41).
T4 construct: purchased BPS 50008
T4 sequence (Q9BY41 1-377): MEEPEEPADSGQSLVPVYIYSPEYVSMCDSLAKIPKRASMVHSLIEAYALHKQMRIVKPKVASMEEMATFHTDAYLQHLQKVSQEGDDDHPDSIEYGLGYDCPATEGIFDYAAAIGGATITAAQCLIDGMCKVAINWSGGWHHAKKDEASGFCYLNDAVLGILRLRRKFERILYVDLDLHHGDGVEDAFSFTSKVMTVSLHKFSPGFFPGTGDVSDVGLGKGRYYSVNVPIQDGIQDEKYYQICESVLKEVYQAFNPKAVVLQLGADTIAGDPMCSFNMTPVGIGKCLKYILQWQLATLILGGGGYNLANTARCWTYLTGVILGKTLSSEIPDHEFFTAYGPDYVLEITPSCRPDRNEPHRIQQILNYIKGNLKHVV
The series can be described thus: Enzymatic test HDAC8. It is filed as biochemical. Particulars: Table 3.

In a further series the target is T5, HDAC5 (Homo sapiens, UniProt Q9UQL6).
T5 construct: purchased BPS 50005
The series can be described thus: Enzymatic test HDAC5. As to conditions: Table 3. It is filed as biochemical. On the procedure:
as §1

Series [1] can be described thus: Stability to Phase I metabolism in rat S9 liver fraction. It counts as in vitro ADME. Particulars: after 90 min, 37° C. The method in brief: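 Phase I stability in human and rat hepatic S9 at 37 °C, sampled up to 90 min. Samples were stopped with acidified acetonitrile on ice, then quantified by HPLC-UV or LC-MS/MS.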
A further series is described as follows: Stability in rat plasma. It counts as in vitro ADME. As to conditions: after 4 hours, 37° C. The essentials:
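Compounds incubated at 37° C in rat or human plasma at 50 μM (UV/HPLC) or 1 or 2 μM (LC-MS/MS) for 0–4 h. Reaction stopped with acidified acetonitrile on ice; percent remaining versus initial amount and plasma half-life calculated.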

Each structure is given as a SMILES string. Read-outs that look alike come from different tables or passages of the source.

A word on the IC50: it is the concentration needed to halve the response being measured.

T2 sequence (O15379 whole entry): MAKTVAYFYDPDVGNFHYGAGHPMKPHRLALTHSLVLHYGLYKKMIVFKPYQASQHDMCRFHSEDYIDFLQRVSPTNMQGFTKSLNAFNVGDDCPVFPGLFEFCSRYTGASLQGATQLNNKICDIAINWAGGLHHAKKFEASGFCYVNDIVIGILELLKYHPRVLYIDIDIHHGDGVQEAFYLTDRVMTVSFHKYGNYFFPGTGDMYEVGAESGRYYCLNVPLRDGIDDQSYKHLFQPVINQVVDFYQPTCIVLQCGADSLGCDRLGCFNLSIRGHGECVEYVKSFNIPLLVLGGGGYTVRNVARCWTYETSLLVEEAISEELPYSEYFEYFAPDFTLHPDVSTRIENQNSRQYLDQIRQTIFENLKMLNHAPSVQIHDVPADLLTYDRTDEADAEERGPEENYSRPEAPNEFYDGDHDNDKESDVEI
T2 sequence (Q9Y618 395-489 partner limits assumed): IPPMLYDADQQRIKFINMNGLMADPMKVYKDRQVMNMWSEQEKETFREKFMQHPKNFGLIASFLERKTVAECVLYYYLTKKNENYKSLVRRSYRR
T3 sequence (Q13547 whole entry): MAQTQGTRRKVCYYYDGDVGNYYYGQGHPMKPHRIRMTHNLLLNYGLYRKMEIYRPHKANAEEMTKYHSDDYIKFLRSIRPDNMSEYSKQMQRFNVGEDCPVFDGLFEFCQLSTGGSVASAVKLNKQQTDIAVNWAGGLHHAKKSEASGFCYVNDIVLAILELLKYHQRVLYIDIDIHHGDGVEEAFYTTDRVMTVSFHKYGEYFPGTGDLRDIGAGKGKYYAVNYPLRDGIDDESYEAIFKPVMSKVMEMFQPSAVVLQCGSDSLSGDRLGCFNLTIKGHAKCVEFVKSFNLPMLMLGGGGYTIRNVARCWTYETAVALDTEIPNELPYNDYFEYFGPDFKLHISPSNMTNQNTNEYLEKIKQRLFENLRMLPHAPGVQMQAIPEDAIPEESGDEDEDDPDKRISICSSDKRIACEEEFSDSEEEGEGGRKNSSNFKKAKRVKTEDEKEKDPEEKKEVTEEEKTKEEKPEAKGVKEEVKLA
T5 sequence (Q9UQL6 656-1122 limits assumed): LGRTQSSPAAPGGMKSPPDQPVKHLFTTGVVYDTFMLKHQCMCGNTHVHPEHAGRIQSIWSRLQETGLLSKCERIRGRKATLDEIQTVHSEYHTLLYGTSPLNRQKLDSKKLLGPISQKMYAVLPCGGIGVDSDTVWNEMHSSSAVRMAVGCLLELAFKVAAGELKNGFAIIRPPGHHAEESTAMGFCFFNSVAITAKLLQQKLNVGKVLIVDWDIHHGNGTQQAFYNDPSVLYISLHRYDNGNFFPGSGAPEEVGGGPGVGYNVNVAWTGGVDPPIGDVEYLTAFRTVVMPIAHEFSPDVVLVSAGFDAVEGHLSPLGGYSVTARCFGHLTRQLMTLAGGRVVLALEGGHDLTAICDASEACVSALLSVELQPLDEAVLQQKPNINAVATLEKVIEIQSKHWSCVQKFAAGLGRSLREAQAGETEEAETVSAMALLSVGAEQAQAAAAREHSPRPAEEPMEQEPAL

For `COc1ccc(C(=O)N[C@@H](Cc2cscn2)c2nc(Cc3ccc(C(=O)NO)cc3)no2)cc1OC` [comp. 1, (S)—N-(1-(3-(4-(hydroxycarbamoyl)benzyl)-1,2,4-oxadiazol-5-yl)-2-(thiazol-4-yl)ethyl)-3,4-dimethoxybenzamide], the IC50 at recombinant human HDAC6 (Table 2) was 81 nM; on recombinant human HDAC6 (Table 3), 81 nM; at recombinant human HDAC3 it was 2870 nM; at HDAC1 it was 1930 nM; against HDAC8, 710 nM; at HDAC5 it was 12000 nM. Besides, the “residual percentage in rat S9 fraction” value in series [1] is on record as 70%. Also, the “residual percentage in rat plasma” value in “Stability in rat plasma” was 86%.
Consider `Cn1c(Sc2c(F)cc(C(=O)NO)cc2F)nnc1-c1cccc2ccccc12` [comp. 2, 3,5-difluoro-N-hydroxy-4-((4-methyl-5-(naphthalen-1-yl)-4H-1,2,4-triazol-3-yl)thio)benzamide], for which the IC50 on recombinant human HDAC6 (Table 2) stood at 16 nM; at recombinant human HDAC6 (Table 3), 16 nM; at recombinant human HDAC3, 8650 nM; against HDAC1, 11600 nM; at HDAC5, 1850 nM. For the same molecule, the “residual percentage in rat S9 fraction” value in series [1] is recorded as 1%. For the same molecule, the “residual percentage in rat plasma” value in the series “Stability in rat plasma” worked out at 79%.
In the case of `O=C(NO)c1cc(F)c(Cn2nnc(-c3ccccn3)n2)c(F)c1` [comp. 6, 3,5-difluoro-N-hydroxy-4-((5-(pyridin-2-yl)-2H-tetrazol-2-yl)methyl)benzamide], the IC50 at recombinant human HDAC6 (Table 2) is 7 nM; on recombinant human HDAC6 (Table 3), 7 nM; at recombinant human HDAC3 it was 7260 nM; on HDAC1, 7510 nM; against HDAC8 it was 1020 nM; on HDAC5, 1050 nM. Further, the “residual percentage in rat S9 fraction” value in series [1] stood at 96.6%. The “residual percentage in rat plasma” value in the series “Stability in rat plasma” worked out at 87%.
In the case of `O=C(NO)c1ccc(Cn2nnnc2-c2cccs2)cc1` [comp. 8, N-hydroxy-4-((5-(thiophen-2-yl)-1H-tetrazol-1-yl)methyl)benzamide], the “residual percentage in rat S9 fraction” value in series [1] was found to be 82%. Moreover, in “Stability in rat plasma”, the “residual percentage in rat plasma” value is listed as 62%.
As for `O=C(NO)c1ccc(Cn2nnc(-c3cccs3)n2)cc1` [comp. 50, 4-[[5-(2-thienyl)tetrazol-2-yl]methyl]benzenecarbohydroxamic acid], the IC50 is 2 nM at recombinant human HDAC6 (Table 2); 2 nM at recombinant human HDAC6 (Table 3); 154 nM on recombinant human HDAC3; 254 nM against HDAC1; 455 nM against HDAC8; 1950 nM against HDAC5.
With `CN(C)c1cccc(-c2nnc(Sc3ccc(C(=O)NO)cc3)n2C)c1` [comp. 77, 4-[[5-[3-(dimethylamino)phenyl]-4-methyl-1,2,4-triazol-3-yl]sulfanyl]benzenecarbohydroxamic acid], the half-maximal inhibitory concentration (IC50) on recombinant human HDAC6 (Table 2) turned out to be 17 nM; at recombinant human HDAC6 (Table 3) it was 17 nM; on recombinant human HDAC3, 1150 nM; against HDAC1 it was 581 nM; against HDAC8 it was 795 nM; on HDAC5 it was 4470 nM. In addition, the “residual percentage in rat S9 fraction” value in series [1] stood at 40%.
Regarding `O=C(NO)c1cc(F)c(Cn2nnc(-c3scc4c3OCCO4)n2)c(F)c1` [comp. 79, 4-[[5-(2,3-dihydrothieno[3,4-b][1,4]dioxin-5-yl)tetrazol-2-yl]methyl]-3,5-difluoro-benzenecarbohydroxamic acid], the IC50 at recombinant human HDAC6 (Table 2) turned out to be 8 nM; at recombinant human HDAC6 (Table 3), 8 nM; on recombinant human HDAC3, 1650 nM; against HDAC1, 2320 nM; at HDAC5 it was 687 nM. In addition, the “residual percentage in rat S9 fraction” value in series [1] amounted to 73%. In addition, in “Stability in rat plasma”, the “residual percentage in rat plasma” value was determined as 99%.
For `O=C(NO)c1cc(F)c(Cn2nnnc2-c2ncccn2)c(F)c1` [comp. 125, 3,5-difluoro-4-[(5-pyrimidin-2-yltetrazol-1-yl)methyl]benzenecarbohydroxamic acid], the concentration for half-maximal inhibition (IC50) at recombinant human HDAC6 (Table 2) stood at 17 nM. Further, the “residual percentage in rat S9 fraction” value in series [1] turned out to be 90%. Also, the “residual percentage in rat plasma” value in “Stability in rat plasma” is 78%.
On the same counts, the results for `Cn1c(Sc2c(F)cc(C(=O)NO)cc2F)nnc1-c1cccc(CN2CCCCCC2)c1` [comp. 167, 4-[[5-[3-(azepan-1-ylmethyl)phenyl]-4-methyl-1,2,4-triazol-3-yl]sulfanyl]-3,5-difluoro-benzenecarbohydroxamic acid] are 6 nM, 55% and 85%.
For `Cn1c(Sc2c(F)cc(C(=O)NO)cc2F)nnc1-c1ccc(CN2CCCCCC2)cc1` [comp. 168, 4-[[5-[4-(azepan-1-ylmethyl)phenyl]-4-methyl-1,2,4-triazol-3-yl]sulfanyl]-3,5-difluoro-benzenecarbohydroxamic acid], the IC50 on recombinant human HDAC6 (Table 2) is 7 nM.
Take `Nc1ccc(-c2nnn(Cc3c(F)cc(C(=O)NO)cc3F)n2)cc1` [comp. 171, 4-[[5-(4-aminophenyl)tetrazol-2-yl]methyl]-3,5-difluoro-benzenecarbohydroxamic acid]: the concentration for half-maximal inhibition (IC50) on recombinant human HDAC6 (Table 2) came out at 4 nM. For the same molecule, the “residual percentage in rat S9 fraction” value in series [1] amounted to 48%. The “residual percentage in rat plasma” value in the series “Stability in rat plasma” turned out to be 77%.
As for `Cn1c(Sc2c(F)cc(C(=O)NO)cc2F)nnc1-c1cccnn1` [comp. 179, 3,5-difluoro-4-[(4-methyl-5-pyridazin-3-yl-1,2,4-triazol-3-yl)sulfanyl]benzenecarbohydroxamic acid], the half-inhibitory concentration (IC50) at recombinant human HDAC6 (Table 2) came to 11 nM. Further, the “residual percentage in rat S9 fraction” value in series [1] was found to be 58%. Besides, in the series “Stability in rat plasma”, the “residual percentage in rat plasma” value is given as 98%.
For the molecule `Cn1c(Sc2c(F)cc(C(=O)NO)cc2F)nnc1-c1ncccc1F` [comp. 180, 3,5-difluoro-4-[[5-(3-fluoro-2-pyridyl)-4-methyl-1,2,4-triazol-3-yl]sulfanyl]benzenecarbohydroxamic acid], the IC50 on recombinant human HDAC6 (Table 2) came to 6 nM. In addition, the “residual percentage in rat S9 fraction” value in series [1] is recorded as 70%. The “residual percentage in rat plasma” value in “Stability in rat plasma” was 100%.
Take `O=C(NO)c1cc(F)c(Cc2nnc(-c3ccncc3)s2)c(F)c1` [compound 195, 3,5-difluoro-4-[[5-(4-pyridyl)-1,3,4-thiadiazol-2-yl]methyl]benzenecarbohydroxamic acid]: the IC50 at recombinant human HDAC6 (Table 2) stood at 4 nM. The “residual percentage in rat S9 fraction” value in series [1] worked out at 32%. In “Stability in rat plasma”, the “residual percentage in rat plasma” value is given as 84%.

(Values after US11351178B2, “Selective HDAC6 inhibitors” (ITALFARMACO S.P.A., priority 2017, dated 2022).)
